Measurements as given in patent US8026218B2, “Bifunctional analgesic compounds for opioid receptor agonists and neurokinin-1 receptor antagonists” (The University of Arizona, priority 2006, dated 2011).
≈ marks a conversion by molar mass, not a printed value. Like-named read-outs stand apart in the source and are kept apart here.

Assays:
[1] = Octanol/saline distribution (logD7.4); format: physicochemical
Procedure: HEPES buffer (0.05 M HEPES buffer in 0.1 M NaCl, pH 7.4, 500 μL) was added to 2 mg of compound and mixed with 500 μL of 1-octanol. The sample was shaken at r.t. for 12 h to allow equilibrating. The sample was centrifuged at 6500 rpm in a VanGuard V6500 (GlaxoSmithKline, Research Triangle Park, N.C.) for 15 min. The layers were separated and each layer was centrifuged once again. The compound concentrations of obtained layers were analyzed by HPLC (30-70% of acetonitrile containing 0.1% TFA within 20 min and up to 95% within additional 5 min, 1 mL/min, 230 nm, Vydac 218TP104 C-18 column). The logarithm of 1-octanol/saline distribution (logD7.4) was calculated as the ratio of compound concentration in the 1-octanol and saline phases.
Octanol/saline distribution (logD7.4) (Yamamoto, 2007, J. Med. Chem., submitted). HEPES buffer (0.05 M HEPES buffer in 0.1 M NaCl, pH 7.4, 500 μL) was added to 2 mg of compound and mixed with 500 μL of 1-octanol. The sample was shaken at r.t. for 12 h to allow equilibrating. The sample was centrifuged at 6500 rpm in a VanGuard V6500 (GlaxoSmithKline, Research Triangle Park, N.C.) for 15 min. The layers were separated and each layer was centrifuged once again. The compound concentrations in the obtained layers were analyzed by HPLC (30-70% of acetonitrile containing 0.1% TFA within 20 min and up to 95% within additional 5 min, 1 mL/min, 230 nm, Vydac 218TP104 C-18 column). The logarithm of 1-octanol/saline distribution (logD7.4) was calculated as the ratio of compound concentration in the 1-octanol and saline phases.

[2] = molecular target: T1, Substance P receptors (guinea pig NK1) (Cavia porcellus, UniProt P30547); assay: Guinea pig isolated ileum (GPI) assay with substance P stimulation in presence of 1 μM naloxone
T1 construct: from tissue; host or cells: guinea pig (Hartley) ileum LMMP, 1 μM naloxone present

rat NK1 (rNK1) receptor = molecular target: T2, rat NK1 (rNK1) receptor (Rattus norvegicus, UniProt P14600); assay: Radioligand competition binding, [3H]substance P, rNK1/CHO membranes; conditions: for IC50: LogIC50, rNK1, [3H]Substance P, Table 6, logarithm of IC50 (negative), CHO cell membranes
T2 construct: expressed in transfected cells; host or cells: CHO (rNK-1/CHO cell line from Dr. James Krause)

[3] = molecular target: T3, human NK1 receptor (hNK1) (Homo sapiens, UniProt P25103); assay: Radioligand competition binding, [3H]-Substance P, hNK1
T3 construct: expressed in transfected cells

[4] = molecular target: T4, rat μ opioid receptors (rMOR) (Rattus norvegicus, UniProt P33535); assay: biochemical; format: biochemical
T4 construct: expressed in transfected cells; host or cells: HN9.10 neuroblastoma cell line, pCDNA3, neomycin-selected clones

[5] = molecular target: T5, human δ opioid receptors (hDOR) (Homo sapiens, UniProt P41143); assay: [35S]GTP-γ-S binding assay, hDOR; format: biochemical
T5 construct: expressed in transfected cells; host or cells: HN9.10 neuroblastoma cell line, pCDNA3, neomycin-selected clones

[6] = Solubility in HEPES buffer; format: physicochemical; conditions: Table 26; HEPES buffer pH 7.4
Procedure: Solubility. HEPES buffer (0.05 M HEPES buffer in 0.1 M NaCl, pH 7.4, 500 μL) was added to 1 mg of compound. The sample was vortexed for 30 sec, sonicated for 5 min, shaken at r.t. for 2 h, and then allowed to be stayed overnight to equilibration. The sample was filtrated with an Acrodisc Syringe Filter (13 mm, 0.45 μm pore, PTFE membrane, Pall Life Sciences, East Hills, N.Y.).

δ opioid receptors (MVD) = molecular target: T6, δ opioid receptors (MVD) (Mus musculus, UniProt P32300); assay: Mouse isolated vas deferens (MVD) assay, opioid agonist
T6 construct: from tissue; host or cells: mouse (ICR) isolated vas deferens

[7] = molecular target: T4, rat μ opioid receptors (rMOR); assay: Radioligand competition binding, [3H]DAMGO, rMOR membranes
μ opioid receptors (GPI) = assay: Guinea pig isolated ileum (GPI) assay, opioid agonist;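 further: inhibition of electrically evoked contractions (0.1 Hz, 0.4 msec, supramaximal voltage) in organ baths at 37 °C, contraction height 3 min after each cumulative dose versus the 1 min before dosing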
Procedure: Guinea Pig Isolated Ileum Assay. […] These tissues were tied to gold chains with suture silk and mounted between platinum wire electrodes in 20 mL organ baths at a tension of 1 g and bathed in oxygenated (95:5 O2:CO2) Kreb's bicarbonate buffer at 37° C. and stimulated electrically (0.1 Hz, 0.4 msec duration) at supramaximal voltage. Following an equilibration period, compounds were added cumulatively to the bath in volumes of 14-60 μL until maximum inhibition was reached. A baseline PL-017 was constructed to determine tissue integrity and allow calculation of antagonist activity before opioid analog testing began.
For opioid data analysis, percentage inhibition was calculated using the average tissue contraction height for 1 min preceding the addition of the agonist divided by the contraction height 3 min after exposure to the dose of agonist. […] IC50 and Emax estimates were determined by computerized nonlinear least-squares analysis (the pharmacological statistics package FlashCalc: Dr. Michael Ossipov, University of Arizona, Tucson, Ariz.). […] A50 values represent the mean of not less than 4 tissues. A50 and Emax estimates were determined by computerized nonlinear least-squares analysis (FlashCalc).

[8] = 0.05 N HEPES buffer in 0.1 N NaCl
[9] = Table 39, read-out: Affinity hNK1 (Ki; nM)
[10] = read-out: Ki (nM), hNK1, [3H]Substance P, Table 6, CHO cell membranes
[11] = Table 24, read-out: GTP binding rMOR Emax (%)
[12] = Table 39, read-out: GTP binding rMOR Emax
[13] = read-out: GTP binding hDOR Emax
[14] = read-out: GTP binding hDOR Emax (%)
[15] = GPI/LMMP SP Antagonist (Ke; nM), Table 24

T3 sequence (P25103 whole entry): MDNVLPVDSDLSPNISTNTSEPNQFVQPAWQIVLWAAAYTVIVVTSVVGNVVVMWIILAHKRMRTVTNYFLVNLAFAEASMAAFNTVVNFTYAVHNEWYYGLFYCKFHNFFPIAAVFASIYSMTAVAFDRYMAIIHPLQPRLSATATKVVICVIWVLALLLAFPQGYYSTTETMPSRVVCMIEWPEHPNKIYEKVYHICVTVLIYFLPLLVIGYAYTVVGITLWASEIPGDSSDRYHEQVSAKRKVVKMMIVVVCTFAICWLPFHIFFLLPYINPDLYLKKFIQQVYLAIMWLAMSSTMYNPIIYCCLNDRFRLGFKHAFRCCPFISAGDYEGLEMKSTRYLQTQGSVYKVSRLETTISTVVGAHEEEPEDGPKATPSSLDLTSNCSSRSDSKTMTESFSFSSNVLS
T5 sequence (P41143 whole entry): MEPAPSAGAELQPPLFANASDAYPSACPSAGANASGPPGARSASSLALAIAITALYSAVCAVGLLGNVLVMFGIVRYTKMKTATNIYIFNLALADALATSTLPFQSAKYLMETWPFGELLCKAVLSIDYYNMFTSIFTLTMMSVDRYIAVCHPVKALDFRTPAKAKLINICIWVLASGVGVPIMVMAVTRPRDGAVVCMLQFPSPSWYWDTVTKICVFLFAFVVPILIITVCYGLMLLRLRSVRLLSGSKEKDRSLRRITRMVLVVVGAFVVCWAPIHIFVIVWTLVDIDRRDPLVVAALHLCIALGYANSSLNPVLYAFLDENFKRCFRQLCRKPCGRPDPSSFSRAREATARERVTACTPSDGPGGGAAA
T2 sequence (P14600 whole entry): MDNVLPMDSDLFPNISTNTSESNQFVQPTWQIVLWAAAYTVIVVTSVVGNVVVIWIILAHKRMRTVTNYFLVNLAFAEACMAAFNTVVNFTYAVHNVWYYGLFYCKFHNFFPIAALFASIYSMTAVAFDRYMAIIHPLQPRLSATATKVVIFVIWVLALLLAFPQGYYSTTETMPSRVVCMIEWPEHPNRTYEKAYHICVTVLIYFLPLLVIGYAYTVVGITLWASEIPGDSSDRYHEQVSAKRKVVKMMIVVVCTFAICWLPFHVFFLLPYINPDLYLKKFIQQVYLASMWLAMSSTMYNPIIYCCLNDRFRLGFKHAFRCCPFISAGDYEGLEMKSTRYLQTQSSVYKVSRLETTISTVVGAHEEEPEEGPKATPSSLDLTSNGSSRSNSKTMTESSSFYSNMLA
T1 sequence (P30547 whole entry): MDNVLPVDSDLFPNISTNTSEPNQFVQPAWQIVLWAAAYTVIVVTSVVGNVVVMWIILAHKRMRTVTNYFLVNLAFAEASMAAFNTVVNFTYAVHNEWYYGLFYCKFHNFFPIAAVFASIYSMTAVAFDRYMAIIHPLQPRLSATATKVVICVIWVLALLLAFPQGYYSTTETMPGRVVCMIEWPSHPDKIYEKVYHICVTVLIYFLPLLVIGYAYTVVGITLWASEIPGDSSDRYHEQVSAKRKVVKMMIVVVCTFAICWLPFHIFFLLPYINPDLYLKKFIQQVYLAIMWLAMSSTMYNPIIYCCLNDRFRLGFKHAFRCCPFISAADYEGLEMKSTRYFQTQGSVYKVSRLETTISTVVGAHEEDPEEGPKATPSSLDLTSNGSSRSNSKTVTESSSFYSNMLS
T4 sequence (P33535 whole entry): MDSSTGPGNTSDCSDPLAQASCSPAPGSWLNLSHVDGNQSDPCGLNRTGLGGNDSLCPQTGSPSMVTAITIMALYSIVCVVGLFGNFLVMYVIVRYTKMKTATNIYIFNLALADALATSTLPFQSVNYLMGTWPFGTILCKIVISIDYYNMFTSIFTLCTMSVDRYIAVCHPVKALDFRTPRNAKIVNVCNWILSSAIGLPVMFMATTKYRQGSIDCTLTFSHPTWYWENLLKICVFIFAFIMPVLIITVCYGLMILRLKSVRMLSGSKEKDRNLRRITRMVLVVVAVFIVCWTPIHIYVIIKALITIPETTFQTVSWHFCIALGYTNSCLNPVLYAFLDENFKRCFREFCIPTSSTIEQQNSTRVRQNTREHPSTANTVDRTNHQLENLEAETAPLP
T6 sequence (P32300 whole entry): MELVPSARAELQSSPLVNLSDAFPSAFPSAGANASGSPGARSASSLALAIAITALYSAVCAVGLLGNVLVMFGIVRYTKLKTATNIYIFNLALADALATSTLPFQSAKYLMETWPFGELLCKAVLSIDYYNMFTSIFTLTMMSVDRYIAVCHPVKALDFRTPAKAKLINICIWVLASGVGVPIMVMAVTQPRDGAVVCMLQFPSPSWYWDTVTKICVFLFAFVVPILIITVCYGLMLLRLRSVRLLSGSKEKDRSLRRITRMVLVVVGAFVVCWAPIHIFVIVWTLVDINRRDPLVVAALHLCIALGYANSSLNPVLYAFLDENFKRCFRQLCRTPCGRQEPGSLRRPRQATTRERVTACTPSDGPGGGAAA

With CC(C)C[C@H](NC(=O)[C@@H]1CCCN1C(=O)[C@H](Cc1ccccc1)NC(=O)CNC(=O)[C@@H](C)NC(=O)[C@@H](N)Cc1ccc(O)cc1)C(=O)N[C@@H](Cc1c[nH]c2ccccc12)C(=O)NCc1ccccc1 [TY008, H-Tyr-DAla-Gly-Phe-Pro-Leu-Trp-NH-Bzl] the logD7.4 [1, 8] was 3.3, the “species difference between the guinea pig and the rat (NK1)” value ([2]; GPI Ke vs rNK1 affinity) was “more than 40 fold” and the Kb ([2]; Substance P antagonist, GPI, Ke, in the presence of 1 μM naloxone) was 26 ± 3.9 nM. The inhibition at 1 µM (rat NK1 (rNK1) receptor; read-out: Inhibition % at 1 μM, rNK1, [3H]Substance P) was 30 ± 9.9%, the inhibition at 1 µM (rat NK1 (rNK1) receptor; read-out: inhibition at rNK1 receptor) was 30% and the IC50 [3] was 31.6 nM. The Ki [3, 9] was 14 nM, the Ki [3, 10] was 14 nM and the Ki ([3]; read-out: Ki, hNK1) was 14 nM.

Compound CC(C)C[C@H](NC(=O)[C@@H]1CCCN1C(=O)[C@H](Cc1ccccc1)NC(=O)CNC(=O)[C@@H](C)NC(=O)[C@@H](N)Cc1ccc(O)cc1)C(=O)N[C@@H](Cc1c[nH]c2ccccc12)C(=O)NCc1cc(C(F)(F)F)cc(C(F)(F)F)c1 [TY012, H-Tyr-D-Ala-Gly-Phe-Pro-Leu-Trp-NH-3,5-Bzl(CF3)2] has a logD7.4 [1, 8] greater than 4, an IC50 (rat NK1 (rNK1) receptor) of 100 nM and an IC50 [3] of 1.26 nM.

CC(C)C[C@H](NC(=O)[C@@H]1CCCN1C(=O)[C@H](Cc1ccccc1)NC(=O)CNC(=O)[C@@H](C)NC(=O)[C@@H](N)Cc1ccc(O)cc1)C(=O)N[C@@H](Cc1c[nH]c2ccccc12)C(=O)N(C)Cc1cc(C(F)(F)F)cc(C(F)(F)F)c1 [TY013, H-Tyr-D-Ala-Gly-Phe-Pro-Leu-Trp-NMe-3,5-Bzl(CF3)2] showed a logD7.4 [1, 8] greater than 4, an IC50 (rat NK1 (rNK1) receptor) of 20 nM and an IC50 [3] of 3.16 nM. The Ki [3] was 6.1 nM, the Ki [3, 9] was 1.4 nM and the Ki [3, 10] was 1.4 nM.

CCCC[C@H](NC(=O)[C@H](Cc1ccccc1)NC(=O)CNC(=O)[C@@H](C)NC(=O)[C@@H](N)Cc1ccc(O)cc1)C(=O)N1CCC[C@H]1C(=O)NC(COC1OC(CO)C(O)C(O)C1O)C(=O)N[C@@H](Cc1c[nH]c2ccccc12)C(=O)NCc1cc(C(F)(F)F)cc(C(F)(F)F)c1 (stereo partly drawn) [TY041] gave an Emax [4, 11] of 42%, an Emax [4, 12] of 42% and an Emax [5, 13] of 62%. For the same compound, the Emax [5, 14] was 62% and the solubility [6] was less than 1 µg/mL.

With CC(C)C[C@H](NC(=O)[C@@H]1CCCN1C(=O)C(COC1OC(CO)C(O)C(O)C1O)NC(=O)[C@H](Cc1ccccc1)NC(=O)CNC(=O)[C@@H](C)NC(=O)[C@@H](N)Cc1ccc(O)cc1)C(=O)N[C@@H](Cc1c[nH]c2ccccc12)C(=O)NCc1cc(C(F)(F)F)cc(C(F)(F)F)c1 (stereo partly drawn) [TY042] the “GPI/LMMP SP Agonist (IC50; nM)” value ([2]; Table 39, at 10 nM) was “none”, the Emax [4, 11] was 28% and the Emax [4, 12] was 28%. For the same compound, the Emax [5, 13] was 47%, the Emax [5, 14] was 47% and the solubility [6] was 1.4 µg/mL (≈ 1.05 µM).

CCCC[C@H](NC(=O)[C@H](Cc1ccccc1)NC(=O)CNC(=O)[C@@H](C)NC(=O)[C@@H](N)Cc1ccc(O)cc1)C(=O)N[C@@H](COC1O[C@H](CO)[C@@H](O)[C@H](O)[C@H]1O)C(=O)N[C@@H](CC(C)C)C(=O)N[C@@H](Cc1c[nH]c2ccccc12)C(=O)NCc1cc(C(F)(F)F)cc(C(F)(F)F)c1 (stereo partly drawn) [TY044] showed a Kb [2, 15] of 18.4 nM, an EC50 ([4]; GTP binding rMOR EC50 (nM)) of 380 nM and an Emax ([4]; read-out: GTP binding rMOR Emax) of 85%. The Emax ([4]; read-out: GTP binding rMOR Emax (%)) was 85%, the IC50 (δ opioid receptors (MVD)) was 18 nM and the Ki [3] was 1.3 nM. The solubility thermodynamic [6] was less than 1 µg/mL and the Ki [7] was 3370 nM.

For CCCC[C@H](NC(=O)[C@H](Cc1ccccc1)NC(=O)CNC(=O)[C@@H](C)NC(=O)[C@@H](N)Cc1ccc(O)cc1)C(=O)N1CCC[C@H]1C(=O)N[C@@H](CC(C)C)C(=O)N[C@@H](Cc1c[nH]c2ccccc12)C(=O)NCc1cc(C(F)(F)F)cc(C(F)(F)F)c1 [TY045], the logD7.4 ([1]; Table 26, pH 7.4) was greater than 3.0, the Kb [2, 15] was 40.8 nM and the IC50 (δ opioid receptors (MVD)) was 13.6 nM. It also gave an Emax ([5]; Table 24, read-out: GTP binding hDOR Emax (%)) of 125%, an Emax ([5]; Table 39, read-out: GTP binding hDOR Emax) of 125% and a solubility [6] of less than 1 µg/mL. It also gave an IC50 (μ opioid receptors (GPI); Table 24, read-out: GPI/LMMP Opioid (μ) Agonist (IC50; nM)) of 463 nM and an IC50 (μ opioid receptors (GPI); Table 39, read-out: GPI/LMMP opioid(mu) agonist (IC50; nM)) of 463 nM.
